Like-named read-outs stand apart in the source and are kept apart here.
What was measured:
[1] = system: mice; conditions: 3000 mg/kg once by gavage; for Death rate (%): 7 days; for Deaths D 1: day 1; for Deaths D 2: day 2; for Deaths D 3: day 3; for Deaths D 4: day 4; for Deaths D 5: day 5; for Deaths D 6: day 6; for Deaths D 7: day 7
Method: Test Example 5 Research on Safety of the Compounds of the Present Invention
The compounds of the present invention were subjected to the following acute toxicity studies in mice.
The symptoms of toxicity reaction and death time were recorded.
On the day before administration, the animals were fasted but provided with water for 17 h. Each test drug group was administered with the corresponding test drug once by gavage, and the blank control group was administered with the same dose of vehicle once by gavage.

[2] = system: Alloxan diabetic mice; assay: Efficacy in Alloxan diabetes model mice; type: in vivo
Method: Test Example 3 Research on efficacy of the compounds of the present invention in in vivo anti-Alloxan diabetes model mice
Alloxan diabetes mice were used. Normal ICR mice (male, 22-24 g) were randomly divided into groups including normal group, model group (con), positive control group and test compound groups with four different doses (n=11), and the mice without injection of Alloxan were in a normal control group (n=10).
Mice were administered with drugs by gavage.
Single administration: Mice were fasted for 3 h, and then the fasting blood (0 min) was collected. Then the mice in each group were administered with drugs by gavage. After 1 h, they were administered with a glucose ([…]) solution. Blood was collected at 30 min, 60 min, 120 min, and 180 min after the glucose administration. The blood glucose level was measured using glucose oxidase-peroxidase method, and the area under the blood glucose curve was calculated.
On the 6th day of continuous administration, under the condition of no fasting, blood samples were collected from mice before administration (0 h), 1 h, 2 h, 4 h, 8 h and 24 h after administration to measure blood glucose.
On the 9th day of continuous administration, the mice were fasted for 1 h and then administered with drugs by gavage. An oral glucose tolerance test (OGTT) was performed 1 h after administration.
On the 16th day of continuous administration, under the condition of no fasting, urine samples were collected from mice 1 h after administration to measure the concentration of urine glucose.
On the 22nd day of continuous administration, the mice were fasted for 1 h and then administered with drugs by gavage, and blood samples were collected to measure the fasting blood glucose 1 h after administration.
On the 28th day of continuous administration, under the condition of no fasting, blood samples were collected from mice 1 h after administration to measure the random blood glucose.
On the 32nd day of continuous administration, under the condition of no fasting, blood samples were collected from mice to measure glycosylated hemoglobin (HbA1c).
The data were expressed as mean±SEM (n=10-11). The comparison between multiple groups was performed by one-way analysis of variance, and the comparison between two groups was performed by Dunnett's t test. Statistical graphing was performed using Graphpad Prism software.

In the case of `CCOc1ccc(Cc2cc([C@@H]3O[C@H](CO)[C@@H](O)[C@H](O)[C@H]3O)ccc2Cl)cc1` [Dapagliflozin, reference compound], the “Death rate (%)” value ([1]; female) is reported as 0%, the “Deaths D 1” value ([1]; female) is reported as 0 and the “Deaths D 2” value ([1]; female) is reported as 0. For the same molecule, the “Deaths D 3” value ([1]; female) was 0, the “Deaths D 4” value ([1]; female) was 0 and the “Deaths D 5” value ([1]; female) was 0. For the same molecule, the “Deaths D 6” value ([1]; female) was 0, the “Deaths D 7” value ([1]; female) was 0 and the “Death rate (%)” value ([1]; male) was 80%. The “Deaths D 1” value ([1]; male) was 0, the “Deaths D 2” value ([1]; male) was 0 and the “Deaths D 3” value ([1]; male) was 1. The “Deaths D 4” value ([1]; male) was 1, the “Deaths D 5” value ([1]; male) was 0 and the “Deaths D 6” value ([1]; male) was 2. For the same molecule, the “Deaths D 7” value ([1]; male) was 0, the “Concentration of fasting blood glucose, the 9th day” value ([2]; 2.0 mg/kg, 9th day) was 256.7 ± 14.4 mg/dL and the “Concentration of fasting blood glucose, the 22nd day” value ([2]; 2.0 mg/kg, 22nd day) was 316.5 ± 18.6 mg/dL. The HbA1c ([2]; 2.0 mg/kg, 32nd day) was 6.6 ± 0.5%, the “AUC of blood glucose” value ([2]; 2.0 mg/kg, OGTT on the 9th day) was 463.3 ± 28.0 mg·h/dL and the “Concentration of blood glucose 0 min” value ([2]; 2.0 mg/kg, OGTT on the 9th day, 0 min) was 256.7 ± 14.4 mg/dL. For the same molecule, the “Concentration of blood glucose 30 min” value ([2]; 2.0 mg/kg, OGTT on the 9th day, 30 min) was 278.3 ± 17.6 mg/dL, the “Concentration of blood glucose 60 min” value ([2]; 2.0 mg/kg, OGTT on the 9th day, 60 min) was 227.3 ± 13.5 mg/dL and the “Concentration of blood glucose 120 min” value ([2]; 2.0 mg/kg, OGTT on the 9th day, 120 min) was 178.9 ± 20.8 mg/dL. For the same molecule, the “AUC of blood glucose” value ([2]; 2.0 mg/kg, non-fasting, 6th day, 0-24 h) was 13216 ± 440.8 mg·h/dL, the “Concentration of blood glucose 1 h” value ([2]; 2.0 mg/kg, non-fasting, 6th day, 1 h after administration) was 433.7 ± 19.5 mg/dL and the “Concentration of blood glucose 2 h” value ([2]; 2.0 mg/kg, non-fasting, 6th day, 2 h after administration) was 425.1 ± 22.5 mg/dL. The “Concentration of blood glucose 4 h” value ([2]; 2.0 mg/kg, non-fasting, 6th day, 4 h after administration) was 343.1 ± 17.8 mg/dL, the “Concentration of blood glucose 8 h” value ([2]; 2.0 mg/kg, non-fasting, 6th day, 8 h after administration) was 522.7 ± 34.0 mg/dL and the “Concentration of blood glucose 24 h” value ([2]; 2.0 mg/kg, non-fasting, 6th day, 24 h after administration) was 697.7 ± 17.6 ^ mg/dl. For the same molecule, the “Concentration of blood glucose 0 h” value ([2]; 2.0 mg/kg, non-fasting, 6th day, before administration) was 614.3 ± 9.6 ^ mg/dl, the “Concentration of blood glucose (random)” value ([2]; 2.0 mg/kg, random blood glucose on the 28th day) was 499.3 ± 13.0 mg/dL and the “Duration of hypoglycemic effect” value ([2]; 6th day, dapagliflozin 2.0 mg/kg, Compound 2 0.25-2.0 mg/kg) was “no significant effect after 24 h”.
